Consider eleven molecules from US12258327B2, “5-membered heteroaryl-containing aminopyridine compounds as EGFR inhibitors” (YUHAN CORPORATION, priority 2021, dated 2025).

Like-named read-outs stand apart in the source and are kept apart here.

For one experiment, the target named is EGFR wildtype (WT) (Homo sapiens, UniProt P00533). Briefly: Biochemical EGFR kinase assay (Lance Ultra TR-FRET), wildtype. The method, boiled down:
(§1)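 In this biochemical assay, phosphorylation after a one-hour room-temperature reaction was detected with europium-labelled anti-phosphopeptide antibody at 2 nM final concentration.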

The next experiment has as its target EGFR del19/C797S (Homo sapiens, UniProt P00533, C797S/DEL746-750). Briefly: Biochemical EGFR kinase assay (Lance Ultra TR-FRET), double mutant del19/C797S. The method, boiled down: as §1
Another experiment has as its target EGFR L858R/C797S (Homo sapiens, UniProt P00533, C797S/L858R). The experiment can be described thus: Biochemical EGFR kinase assay (Lance Ultra TR-FRET), double mutant L858R/C797S. The method, boiled down: as §1
On the technique in general: TR-FRET usually uses a lanthanide donor and a delayed reading to cut background.

For another experiment, the target named is EGFR L858R/T790M/C797S (Homo sapiens, UniProt P00533, C797S/L858R/T790M). The experiment can be described thus: Biochemical EGFR kinase assay (Lance Ultra TR-FRET), triple mutant L858R/T790M/C797S. The method, boiled down:
as §1

A further experiment concerns the target EGFR del19/T790M/C797S (Homo sapiens, UniProt P00533, C797S/DEL746-750/T790M). The experiment can be described thus: Biochemical EGFR kinase assay (Lance Ultra TR-FRET), triple mutant del19/T790M/C797S. The procedure, abridged: as §1
[1] abbreviates: IC50 WT (nM) 100 μM ATP, 100 μM ATP.
Setting [2] is: Km ATP, read-out: IC50 WT (nM) Km ATP.
The mark [3] stands for this setting: IC50 del19/C797S (nM) 100 μM ATP, 100 μM ATP.
[4] abbreviates: Km ATP, read-out: IC50 del19/C797S (nM) Km ATP.
Setting [5] is: IC50 L858R/C797S (nM) 100 μM ATP, 100 μM ATP.
The mark [6] stands for this setting: Km ATP, read-out: IC50 L858R/C797S (nM) Km ATP.
Setting [7] is: IC50 L858R/T790M/C797S (nM) 100 μM ATP, 100 μM ATP.
Setting [8] is: IC50 del19/T790M/C797S (nM) 100 μM ATP, 100 μM ATP.
The mark [9] stands for this setting: Km ATP, read-out: IC50 L858R/T790M/C797S (nM) Km ATP.
Where [10] appears, read: Km ATP, read-out: IC50 del19/T790M/C797S (nM) Km ATP.
Setting [11] is: Km ATP, read-out: IC50 WT, Km ATP.
The mark [12] stands for this setting: Km ATP, read-out: IC50 del19/C797S, Km ATP.
The mark [13] stands for this setting: Km ATP, read-out: IC50 L858R/C797S, Km ATP.
Setting [14] is: Km ATP, read-out: IC50 L858R/T790M/C797S, Km ATP.
The mark [15] stands for this setting: Km ATP, read-out: IC50 del19/T790M/C797S, Km ATP.

Sequence of EGFR L858R/T790M/C797S (P00533 25-1210 T790M/C797S/L858R): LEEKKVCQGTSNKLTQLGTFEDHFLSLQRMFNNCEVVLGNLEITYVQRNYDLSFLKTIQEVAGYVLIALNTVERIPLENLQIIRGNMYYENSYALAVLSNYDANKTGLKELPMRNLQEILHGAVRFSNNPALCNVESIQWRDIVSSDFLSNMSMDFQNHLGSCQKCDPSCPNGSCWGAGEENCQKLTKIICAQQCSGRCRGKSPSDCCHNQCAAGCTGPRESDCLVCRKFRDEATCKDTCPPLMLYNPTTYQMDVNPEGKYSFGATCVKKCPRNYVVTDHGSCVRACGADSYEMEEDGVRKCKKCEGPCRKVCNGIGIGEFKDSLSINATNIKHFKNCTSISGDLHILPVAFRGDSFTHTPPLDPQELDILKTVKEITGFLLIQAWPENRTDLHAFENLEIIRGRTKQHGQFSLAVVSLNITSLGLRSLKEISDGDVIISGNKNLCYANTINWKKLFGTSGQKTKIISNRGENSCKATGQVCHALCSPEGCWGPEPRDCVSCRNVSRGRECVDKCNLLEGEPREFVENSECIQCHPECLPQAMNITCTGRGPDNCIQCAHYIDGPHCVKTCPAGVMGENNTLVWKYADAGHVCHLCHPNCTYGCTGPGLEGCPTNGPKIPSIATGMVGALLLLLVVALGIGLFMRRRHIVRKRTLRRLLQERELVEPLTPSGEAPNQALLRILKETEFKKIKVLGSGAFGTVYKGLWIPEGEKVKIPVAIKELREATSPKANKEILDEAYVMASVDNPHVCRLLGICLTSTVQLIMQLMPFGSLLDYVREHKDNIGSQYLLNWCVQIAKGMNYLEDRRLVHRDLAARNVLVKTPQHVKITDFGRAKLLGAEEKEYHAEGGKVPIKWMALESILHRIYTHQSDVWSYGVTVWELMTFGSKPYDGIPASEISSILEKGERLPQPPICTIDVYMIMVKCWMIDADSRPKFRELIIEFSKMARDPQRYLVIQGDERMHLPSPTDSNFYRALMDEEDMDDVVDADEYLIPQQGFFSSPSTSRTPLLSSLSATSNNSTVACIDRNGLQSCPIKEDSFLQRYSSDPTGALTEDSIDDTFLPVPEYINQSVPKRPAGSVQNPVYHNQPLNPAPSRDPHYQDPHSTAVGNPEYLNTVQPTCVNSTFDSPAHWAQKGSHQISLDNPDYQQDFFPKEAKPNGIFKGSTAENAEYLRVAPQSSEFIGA
Sequence of EGFR L858R/C797S (P00533 25-1210 C797S/L858R): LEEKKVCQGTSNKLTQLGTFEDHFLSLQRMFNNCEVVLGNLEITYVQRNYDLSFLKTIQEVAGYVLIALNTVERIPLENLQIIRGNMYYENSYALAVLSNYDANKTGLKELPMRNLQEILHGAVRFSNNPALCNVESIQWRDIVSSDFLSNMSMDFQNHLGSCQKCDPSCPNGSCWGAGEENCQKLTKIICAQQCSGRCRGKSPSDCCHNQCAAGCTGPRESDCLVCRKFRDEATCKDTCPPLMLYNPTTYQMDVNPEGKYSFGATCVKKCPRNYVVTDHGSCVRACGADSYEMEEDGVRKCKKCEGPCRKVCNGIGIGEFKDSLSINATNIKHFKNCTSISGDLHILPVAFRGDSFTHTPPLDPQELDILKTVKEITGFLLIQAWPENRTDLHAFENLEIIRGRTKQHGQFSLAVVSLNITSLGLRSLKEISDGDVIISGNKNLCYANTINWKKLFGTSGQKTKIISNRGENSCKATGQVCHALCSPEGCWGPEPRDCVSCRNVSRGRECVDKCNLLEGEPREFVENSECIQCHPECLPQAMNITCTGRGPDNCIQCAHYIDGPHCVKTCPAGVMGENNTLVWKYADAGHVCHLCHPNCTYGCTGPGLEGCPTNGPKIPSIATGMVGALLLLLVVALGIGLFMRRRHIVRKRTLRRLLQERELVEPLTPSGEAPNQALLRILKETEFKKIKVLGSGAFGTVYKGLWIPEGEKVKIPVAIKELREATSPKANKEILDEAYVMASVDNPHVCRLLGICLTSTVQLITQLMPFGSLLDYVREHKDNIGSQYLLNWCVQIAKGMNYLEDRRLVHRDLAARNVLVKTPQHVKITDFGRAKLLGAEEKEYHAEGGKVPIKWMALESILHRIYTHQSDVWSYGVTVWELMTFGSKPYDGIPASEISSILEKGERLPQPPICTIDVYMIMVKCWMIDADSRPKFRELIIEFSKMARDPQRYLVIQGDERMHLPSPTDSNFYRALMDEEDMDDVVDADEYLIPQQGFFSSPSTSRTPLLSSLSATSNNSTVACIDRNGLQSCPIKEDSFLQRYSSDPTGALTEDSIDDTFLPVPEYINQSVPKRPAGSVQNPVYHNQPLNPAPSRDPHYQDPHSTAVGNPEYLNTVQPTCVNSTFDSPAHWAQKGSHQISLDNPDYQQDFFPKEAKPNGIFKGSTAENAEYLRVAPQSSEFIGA
Sequence of EGFR del19/T790M/C797S (P00533 with tags, fused parts or gaps DEL746-750/T790M/C797S): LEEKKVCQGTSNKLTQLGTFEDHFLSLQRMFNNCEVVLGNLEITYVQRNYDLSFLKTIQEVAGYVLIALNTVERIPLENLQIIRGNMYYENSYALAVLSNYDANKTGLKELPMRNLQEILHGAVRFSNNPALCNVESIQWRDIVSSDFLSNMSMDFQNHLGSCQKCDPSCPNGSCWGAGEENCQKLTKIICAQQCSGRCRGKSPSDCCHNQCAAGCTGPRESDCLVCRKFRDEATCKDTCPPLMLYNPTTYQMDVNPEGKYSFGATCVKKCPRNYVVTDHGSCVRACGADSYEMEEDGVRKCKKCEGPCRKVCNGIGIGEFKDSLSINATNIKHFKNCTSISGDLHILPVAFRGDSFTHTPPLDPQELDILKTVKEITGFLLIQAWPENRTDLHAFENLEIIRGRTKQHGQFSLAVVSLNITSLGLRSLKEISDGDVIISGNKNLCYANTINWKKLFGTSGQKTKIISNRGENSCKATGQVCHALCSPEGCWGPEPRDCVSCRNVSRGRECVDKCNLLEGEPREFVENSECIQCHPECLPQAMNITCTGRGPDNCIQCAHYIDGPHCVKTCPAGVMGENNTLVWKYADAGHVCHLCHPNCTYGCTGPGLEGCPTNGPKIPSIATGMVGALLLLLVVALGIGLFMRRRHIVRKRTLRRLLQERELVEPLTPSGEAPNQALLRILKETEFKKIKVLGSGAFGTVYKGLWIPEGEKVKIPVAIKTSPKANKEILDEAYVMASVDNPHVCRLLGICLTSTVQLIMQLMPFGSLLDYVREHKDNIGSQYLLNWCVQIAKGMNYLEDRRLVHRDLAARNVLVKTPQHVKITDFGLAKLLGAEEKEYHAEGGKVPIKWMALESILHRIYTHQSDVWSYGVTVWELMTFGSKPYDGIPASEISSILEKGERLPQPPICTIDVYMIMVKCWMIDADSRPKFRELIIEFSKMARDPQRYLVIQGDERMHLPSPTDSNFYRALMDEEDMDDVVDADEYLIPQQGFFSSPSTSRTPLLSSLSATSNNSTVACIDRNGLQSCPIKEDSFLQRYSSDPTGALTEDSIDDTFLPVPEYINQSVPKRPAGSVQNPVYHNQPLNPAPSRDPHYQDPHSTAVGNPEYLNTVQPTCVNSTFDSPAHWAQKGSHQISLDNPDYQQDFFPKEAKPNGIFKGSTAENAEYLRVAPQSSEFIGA
Sequence of EGFR del19/C797S (P00533 with tags, fused parts or gaps DEL746-750/C797S): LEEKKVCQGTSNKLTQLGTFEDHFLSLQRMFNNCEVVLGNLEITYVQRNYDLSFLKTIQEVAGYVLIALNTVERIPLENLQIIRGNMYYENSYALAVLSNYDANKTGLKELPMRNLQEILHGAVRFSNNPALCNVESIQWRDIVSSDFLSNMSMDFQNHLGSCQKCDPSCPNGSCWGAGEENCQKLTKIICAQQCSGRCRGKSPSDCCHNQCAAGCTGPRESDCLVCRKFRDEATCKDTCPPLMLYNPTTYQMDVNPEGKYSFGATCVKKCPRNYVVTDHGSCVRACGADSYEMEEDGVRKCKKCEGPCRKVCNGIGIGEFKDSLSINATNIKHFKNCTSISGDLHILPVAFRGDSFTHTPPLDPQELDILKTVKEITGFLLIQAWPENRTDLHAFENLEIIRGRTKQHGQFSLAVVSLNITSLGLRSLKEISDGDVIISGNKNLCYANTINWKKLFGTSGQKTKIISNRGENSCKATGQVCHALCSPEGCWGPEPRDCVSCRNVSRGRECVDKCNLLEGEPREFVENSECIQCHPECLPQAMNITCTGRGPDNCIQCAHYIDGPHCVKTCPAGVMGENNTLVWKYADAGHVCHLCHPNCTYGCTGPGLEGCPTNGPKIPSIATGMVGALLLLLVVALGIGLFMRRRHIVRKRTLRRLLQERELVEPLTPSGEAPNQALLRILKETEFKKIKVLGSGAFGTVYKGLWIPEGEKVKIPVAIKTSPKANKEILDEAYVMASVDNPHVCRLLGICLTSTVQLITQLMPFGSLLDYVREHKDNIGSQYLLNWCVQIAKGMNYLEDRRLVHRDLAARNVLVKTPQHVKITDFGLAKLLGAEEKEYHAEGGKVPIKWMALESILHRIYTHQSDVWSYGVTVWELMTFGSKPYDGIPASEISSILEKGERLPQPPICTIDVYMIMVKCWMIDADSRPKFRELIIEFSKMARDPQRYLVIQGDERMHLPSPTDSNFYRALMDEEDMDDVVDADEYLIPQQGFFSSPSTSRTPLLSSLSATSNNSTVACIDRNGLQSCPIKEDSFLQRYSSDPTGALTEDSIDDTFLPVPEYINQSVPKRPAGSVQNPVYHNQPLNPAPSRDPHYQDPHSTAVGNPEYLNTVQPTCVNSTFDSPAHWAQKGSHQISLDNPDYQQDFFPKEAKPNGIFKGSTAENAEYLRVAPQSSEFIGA

With `CC(C)(O)[C@H]1CC[C@@H](Nc2cc(Nc3ccnc(-c4cnn(S(=O)(=O)C5CC5)c4)n3)ncc2-c2ccn(CC(F)(F)F)n2)CC1` [Example 265, 2-((1s,4s)-4-((2-((2-(1-(Cyclopropylsulfonyl)-1H-pyrazol-4-yl)pyrimidin-4-yl)amino)-5-(1-(2,2,2-trifluoroethyl)-1H-pyrazol-3-yl)pyridin-4-yl)amino)cyclohexyl)propan-2-ol], the IC50 on EGFR wildtype (WT) (setting [1]) was more than 10000 nM; on EGFR wildtype (WT) (setting [2]), 86.8 nM; against EGFR del19/C797S (setting [3]), 12.2 nM; at EGFR del19/C797S (setting [4]), 11.8 nM; on EGFR L858R/C797S (setting [5]), 187 nM; at EGFR L858R/C797S (setting [6]), 6.6 nM. Also, the IC50 came to 7.4 nM on EGFR L858R/T790M/C797S (setting [7]) and 5.4 nM against EGFR del19/T790M/C797S (setting [8]).
As to `O=S(=O)(C1CC1)n1cc(-c2nccc(Nc3cc(N[C@H]4CC[C@@H](O)CC4)c(-c4ccco4)cn3)n2)cn1` [Example 83, (1s,4s)-4-((2-((2-(1-(Cyclopropylsulfonyl)-1H-pyrazol-4-yl)pyrimidin-4-yl)amino)-5-(furan-2-yl)pyridin-4-yl)amino)cyclohexan-1-ol], the IC50 on EGFR wildtype (WT) (setting [1]) is more than 10000 nM; at EGFR wildtype (WT) (setting [2]), 8.6 nM; against EGFR del19/C797S (setting [3]) it was 1.9 nM; on EGFR del19/C797S (setting [4]), 0.8 nM; against EGFR L858R/C797S (setting [5]) it was 18 nM; at EGFR L858R/C797S (setting [6]), 0.7 nM. Besides, the IC50 at EGFR L858R/T790M/C797S (setting [7]) worked out at 0.7 nM; at EGFR L858R/T790M/C797S (setting [9]) it was 0.3 nM; on EGFR del19/T790M/C797S (setting [8]), 0.6 nM; at EGFR del19/T790M/C797S (setting [10]), 0.3 nM.
As to `CC(Nc1cc(Nc2ccnc(-c3cnn(S(=O)(=O)C4CC4)c3)n2)ncc1-c1ccn(C(F)F)n1)C(F)F` (stereo not drawn) [Example 213, N^2-(2-(1-(Cyclopropylsulfonyl)-1H-pyrazol-4-yl)pyrimidin-4-yl)-5-(1-(difluoromethyl)-1H-pyrazol-3-yl)-N^4-(1,1-difluoropropan-2-yl)pyridine-2,4-diamine], the IC50 came out at 488 nM at EGFR wildtype (WT) (setting [2]); 370 nM on EGFR del19/C797S (setting [4]); 123 nM on EGFR L858R/C797S (setting [6]); 2.7 nM at EGFR L858R/T790M/C797S (setting [9]); 3.4 nM at EGFR del19/T790M/C797S (setting [10]).
As to `O=S(=O)(C1CC1)n1cc(-c2nccc(Nc3cc(OC4CCC(O)CC4)c(-c4cnn(C(F)F)c4)cn3)n2)cn1` (stereo not drawn) [Example 71, 4-((2-((2-(1-(Cyclopropylsulfonyl)-1H-pyrazol-4-yl)pyrimidin-4-yl)amino)-5-(1-(difluoromethyl)-1H-pyrazol-4-yl)pyridin-4-yl)oxy)cyclohexan-1-ol], the IC50 on EGFR wildtype (WT) (setting [1]) is more than 10000 nM; at EGFR wildtype (WT) (setting [2]), 26 nM; on EGFR del19/C797S (setting [3]), 1.7 nM; at EGFR del19/C797S (setting [4]), 3.4 nM; against EGFR L858R/C797S (setting [5]) it was 42.3 nM; on EGFR L858R/C797S (setting [6]), 2.6 nM. In addition, the IC50 was found to be 0.8 nM against EGFR L858R/T790M/C797S (setting [7]), 0.1 nM at EGFR L858R/T790M/C797S (setting [9]), 0.2 nM on EGFR del19/T790M/C797S (setting [8]) and 0.2 nM on EGFR del19/T790M/C797S (setting [10]).
Take `Cc1nn(CC(F)(F)F)cc1-c1nccc(Nc2cc(N[C@H]3CC[C@@](C)(O)CC3)c(-c3ccn(C(F)F)n3)nn2)n1` [Example 375, (1s,4s)-4-((3-(1-(Difluoromethyl)-1H-pyrazol-3-yl)-6-((2-(3-methyl-1-(2,2,2-trifluoroethyl)-1H-pyrazol-4-yl)pyrimidin-4-yl)amino)pyridazin-4-yl)amino)-1-methylcyclohexan-1-ol]: the IC50 at EGFR wildtype (WT) (setting [11]) is 2290 nM; on EGFR del19/C797S (setting [12]), 1150 nM; on EGFR L858R/C797S (setting [13]), 51.4 nM; at EGFR L858R/T790M/C797S (setting [14]), 11.1 nM; at EGFR del19/T790M/C797S (setting [15]), 16.4 nM.
As to `Cc1cn(-c2cnc(Nc3ccnc(-c4cnn(S(=O)(=O)C5CC5)c4)n3)cc2N[C@H]2CC[C@@](C)(O)CC2)nc1C(F)(F)F` [Example 186, (1s,4s)-4-((2-((2-(1-(Cyclopropylsulfonyl)-1H-pyrazol-4-yl)pyrimidin-4-yl)amino)-5-(4-methyl-3-(trifluoromethyl)-1H-pyrazol-1-yl)pyridin-4-yl)amino)-1-methylcyclohexan-1-ol], the IC50 at EGFR wildtype (WT) (setting [2]) stood at 166 nM; on EGFR del19/C797S (setting [4]), 32.9 nM; on EGFR L858R/C797S (setting [6]), 30.4 nM; on EGFR L858R/T790M/C797S (setting [9]), 0.4 nM; on EGFR del19/T790M/C797S (setting [10]), 1.3 nM.
In the case of `Cn1ccc(-c2cnc(Nc3ccnc(-c4cnn(S(=O)(=O)C5CC5)c4)n3)cc2NCC2(C)CCC(O)CC2)n1` (stereo not drawn) [Example 127, 4-(((2-((2-(1-(Cyclopropylsulfonyl)-1H-pyrazol-4-yl)pyrimidin-4-yl)amino)-5-(1-methyl-1H-pyrazol-3-yl)pyridin-4-yl)amino)methyl)-4-methylcyclohexan-1-ol], the IC50 on EGFR wildtype (WT) (setting [1]) is more than 10000 nM; on EGFR wildtype (WT) (setting [2]), 53 nM; against EGFR del19/C797S (setting [3]), 25.8 nM; on EGFR del19/C797S (setting [4]), 16.9 nM; against EGFR L858R/C797S (setting [5]), 355 nM; at EGFR L858R/C797S (setting [6]) it was 19.6 nM. Also, the IC50 is 1.8 nM against EGFR L858R/T790M/C797S (setting [7]), 0.7 nM at EGFR L858R/T790M/C797S (setting [9]), 1 nM on EGFR del19/T790M/C797S (setting [8]) and 0.7 nM on EGFR del19/T790M/C797S (setting [10]).
On to `CC(C)Nc1nc(Nc2ccnc(-c3cnn(S(=O)(=O)C4CC4)c3)c2)ncc1-c1ccn(C(F)F)n1` [Example 363, N^2-(2-(1-(Cyclopropylsulfonyl)-1H-pyrazol-4-yl)pyridin-4-yl)-5-(1-(difluoromethyl)-1H-pyrazol-3-yl)-N^4-isopropylpyrimidine-2,4-diamine], for which the IC50 at EGFR wildtype (WT) (setting [11]) amounted to 4270 nM; on EGFR del19/C797S (setting [12]), 404 nM; on EGFR L858R/C797S (setting [13]) it was 665 nM; on EGFR L858R/T790M/C797S (setting [14]), 4.3 nM; at EGFR del19/T790M/C797S (setting [15]), 3.4 nM.
On to `Cn1ccc(-c2cnc(Nc3ccnc(-c4cnn(S(=O)(=O)C5CC5)c4)n3)cc2N[C@H]2CC[C@H](CO)OC2)n1` [Example 227, ((2R,5S)-5-((2-((2-(1-(Cyclopropylsulfonyl)-1H-pyrazol-4-yl)pyrimidin-4-yl)amino)-5-(1-methyl-1H-pyrazol-3-yl)pyridin-4-yl)amino)tetrahydro-2H-pyran-2-yl)methanol], for which the IC50 against EGFR wildtype (WT) (setting [1]) is more than 10000 nM; on EGFR del19/C797S (setting [3]), 44.4 nM; on EGFR L858R/C797S (setting [5]) it was 962 nM; against EGFR L858R/T790M/C797S (setting [7]) it was 6.7 nM; at EGFR del19/T790M/C797S (setting [8]) it was 2.1 nM.
As for `CC1CC(Nc2cc(Nc3ccnc(-c4cnn(S(=O)(=O)C5CC5)c4)n3)ncc2-c2ccn(C(F)F)n2)CCC1O` (stereo not drawn) [Example 105, 4-((2-((2-(1-(Cyclopropylsulfonyl)-1H-pyrazol-4-yl)pyrimidin-4-yl)amino)-5-(1-(difluoromethyl)-1H-pyrazol-3-yl)pyridin-4-yl)amino)-2-methylcyclohexan-1-ol], the IC50 at EGFR wildtype (WT) (setting [1]) was more than 10000 nM; on EGFR wildtype (WT) (setting [2]), 73.2 nM; against EGFR del19/C797S (setting [3]) it was 73 nM; at EGFR del19/C797S (setting [4]), 48.2 nM; at EGFR L858R/C797S (setting [5]), 1100 nM; at EGFR L858R/C797S (setting [6]) it was 50.7 nM. The IC50 at EGFR L858R/T790M/C797S (setting [7]) came to 4.8 nM; on EGFR L858R/T790M/C797S (setting [9]), 2.5 nM; against EGFR del19/T790M/C797S (setting [8]), 6.2 nM; at EGFR del19/T790M/C797S (setting [10]) it was 7.7 nM.
Regarding `CN1CCC(n2ccc(-c3cnc(Nc4ccnc(-c5cnn(CC(F)F)c5)n4)cc3N[C@H]3CC[C@@](C)(O)CC3)n2)CC1` [Example 342, (1s,4s)-4-((2-((2-(1-(2,2-Difluoroethyl)-1H-pyrazol-4-yl)pyrimidin-4-yl)amino)-5-(1-(1-methylpiperidin-4-yl)-1H-pyrazol-3-yl)pyridin-4-yl)amino)-1-methylcyclohexan-1-ol], the IC50 is 2.7 nM on EGFR wildtype (WT) (setting [11]); 1.8 nM at EGFR del19/C797S (setting [12]); 1.3 nM on EGFR L858R/C797S (setting [13]); 0.1 nM at EGFR L858R/T790M/C797S (setting [14]); 0.2 nM at EGFR del19/T790M/C797S (setting [15]).
